Laboratory results as given in paper PMC7287031 (Pharmacology Research & Perspectives, 2020).
Read-outs that look alike come from different tables or passages of the source.

Tests used:
[1] = Dog pharmacokinetic studies: plasma PK of ribociclib after single i.v. or oral dose; type: in vivo; details: male; for half-life: read-out: t½ (converted)
Method: ADME studies (including QWBA in pigmented and non‐pigmented rats) using radiolabeled ribociclib were conducted in rat and dog. Relevant institutional and national guides for the care and use of laboratory animals were followed. […]

[2] = target: T1, CYP1A2 (Homo sapiens, UniProt P05177); test: Enzyme kinetics with recombinant CYP1A2 and scaling to HLM; type: in vitro ADME
T1 construct: purchased BD Biosciences
T1 sequence (P05177 1-516): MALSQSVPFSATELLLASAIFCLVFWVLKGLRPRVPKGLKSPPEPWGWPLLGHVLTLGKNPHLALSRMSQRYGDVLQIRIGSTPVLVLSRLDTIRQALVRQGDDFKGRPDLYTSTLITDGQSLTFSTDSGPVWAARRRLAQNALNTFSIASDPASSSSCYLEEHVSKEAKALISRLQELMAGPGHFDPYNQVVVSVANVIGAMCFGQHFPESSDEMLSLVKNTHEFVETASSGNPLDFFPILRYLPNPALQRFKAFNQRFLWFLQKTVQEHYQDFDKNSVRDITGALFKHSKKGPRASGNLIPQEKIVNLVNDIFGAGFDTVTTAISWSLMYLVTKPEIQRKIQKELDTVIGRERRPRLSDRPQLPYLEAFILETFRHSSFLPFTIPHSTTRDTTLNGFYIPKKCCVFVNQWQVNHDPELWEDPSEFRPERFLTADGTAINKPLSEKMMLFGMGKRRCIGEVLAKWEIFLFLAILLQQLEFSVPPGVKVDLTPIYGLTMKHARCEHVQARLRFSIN
Method: (§1) In vitro incubations were carried out in 100‐mM potassium phosphate buffer (pH 7.4) and 5‐mM MgCl2 with a total volume of 200 µL. Substrate and either human liver microsomes (HLM, BD Biosciences, mixed gender pool of n = 50) or recombinant human enzymes (BD Biosciences) were added and pre‐incubated for 3 minutes at 37°C. The reaction was started by addition of a fresh solution of NADPH (1 mmol/L final concentration). The samples were incubated at 37°C with agitation of 500 rpm. For incubations with CYP2A6, CYP2C9, CYP2C18, and CYP4A11, the phosphate buffer was replaced by TRIS buffer (100 mmol/L, pH 7.4) and for flavin‐containing monooxygenases (FMOs), a glycine buffer (50 mM, pH 9.5) was used.
(§2) The enzymatic reaction was stopped and the protein was precipitated by addition of an equal volume of methanol. After 30 min at −80°C, the samples were centrifuged at 30'000 x g for 15 min. The supernatant was withdrawn. Aliquots were analyzed by LSC and the supernatant was diluted with water to obtain a final solution containing less than 20% of the organic solvent. For samples of low substrate concentration, supernatants were evaporated to dryness under nitrogen, then re‐suspended in water containing less than 20% of methanol. Samples were analyzed by HPLC combined with radiodetection. […]

[3] = tested on: human liver microsomes; test: Kinetic analysis of ribociclib metabolite formation in HLM and enzyme contribution; type: in vitro ADME; details: metabolite formation kinetics
Method: as §1
(§3) The enzymatic reaction was stopped and the protein was precipitated by addition of an equal volume of methanol. […] The supernatant was withdrawn. Aliquots were analyzed by LSC and the supernatant was diluted with water to obtain a final solution containing less than 20% of the organic solvent. For samples of low substrate concentration, supernatants were evaporated to dryness under nitrogen, then re‐suspended in water containing less than 20% of methanol. Samples were analyzed by HPLC combined with radiodetection.
Km and Vmax parameters were calculated by using SigmaPlot Version 8.0, Enzyme Kinetics module Version 1.1 software (SPSS Science Inc, Chicago, IL, USA). The intrinsic clearance was calculated by the equation: CLint = Vmax/Km.
The intrinsic clearances (Vmax/Km) of each pathway were determined by enzyme kinetics.

[4] = target: T2, CYP3A5 (Homo sapiens, UniProt P20815); test: Enzyme kinetics with recombinant CYP3A5 and scaling to HLM; type: in vitro ADME
T2 construct: purchased BD Biosciences
T2 sequence (P20815 whole entry): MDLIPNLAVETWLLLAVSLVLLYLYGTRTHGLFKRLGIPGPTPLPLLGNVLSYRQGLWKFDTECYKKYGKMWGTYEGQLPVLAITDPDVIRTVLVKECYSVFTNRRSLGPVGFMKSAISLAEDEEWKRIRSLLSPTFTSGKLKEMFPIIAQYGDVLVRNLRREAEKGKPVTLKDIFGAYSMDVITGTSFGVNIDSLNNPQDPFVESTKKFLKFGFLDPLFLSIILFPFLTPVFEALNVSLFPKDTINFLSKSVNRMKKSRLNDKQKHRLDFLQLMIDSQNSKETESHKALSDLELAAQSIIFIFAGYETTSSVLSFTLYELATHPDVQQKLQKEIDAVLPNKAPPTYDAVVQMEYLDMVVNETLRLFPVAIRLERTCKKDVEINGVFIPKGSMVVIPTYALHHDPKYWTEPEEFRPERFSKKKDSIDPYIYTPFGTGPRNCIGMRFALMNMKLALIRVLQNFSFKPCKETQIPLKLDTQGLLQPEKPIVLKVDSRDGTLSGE
Method: as §1, §2

[5] = target: T3, CYP3A4 (Homo sapiens, UniProt P08684); test: Enzyme kinetics with recombinant CYP3A4 and scaling to HLM; type: in vitro ADME
T3 construct: purchased BD Biosciences
T3 sequence (P08684 whole entry): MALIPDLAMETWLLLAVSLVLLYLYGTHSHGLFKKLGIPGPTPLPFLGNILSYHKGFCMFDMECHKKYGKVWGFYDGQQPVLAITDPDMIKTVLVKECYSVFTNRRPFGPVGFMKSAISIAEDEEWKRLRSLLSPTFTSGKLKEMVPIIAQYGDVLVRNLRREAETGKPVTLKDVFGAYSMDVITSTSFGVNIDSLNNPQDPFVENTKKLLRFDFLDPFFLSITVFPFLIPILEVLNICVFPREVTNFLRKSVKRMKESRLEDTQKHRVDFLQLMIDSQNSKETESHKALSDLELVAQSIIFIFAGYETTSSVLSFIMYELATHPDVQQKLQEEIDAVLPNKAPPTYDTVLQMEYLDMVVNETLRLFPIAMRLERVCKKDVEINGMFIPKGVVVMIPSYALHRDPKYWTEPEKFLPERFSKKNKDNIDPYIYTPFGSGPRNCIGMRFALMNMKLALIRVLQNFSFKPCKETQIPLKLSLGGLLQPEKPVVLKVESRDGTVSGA
Method: as §1, §3

[6] = In vitro plasma protein binding (ultrafiltration), rat; type: in vitro ADME; details: 100 and 1000 ng/mL
Method: Stock solutions were spiked into plasma to achieve the intended concentrations. After incubation for 1 hour at 37°C under constant gentle agitation, the spiked plasma samples (n = 3) were centrifuged (2000 g, 10 min, 37°C) in pre‐warmed Centrifree devices. Total radioactivity was determined in the ultrafiltrate (Cu, concentration of unbound compound) and in the sample introduced into the reservoir before ultrafiltration (Cp). The unbound (fu) and the bound (fb) fraction in plasma were calculated as follows: fu (%) = Cu/Cp × 100; fb (%) = 100‐Fu (%).

[7] = tested on: heat-treated human liver microsomes (Homo sapiens); test: Enzyme kinetics in heat-treated HLM (FMO inactivation); type: in vitro ADME; details: heated vs non-heated control HLM
heat-treated human liver microsomes (Homo sapiens), sequence (P08684 2-503): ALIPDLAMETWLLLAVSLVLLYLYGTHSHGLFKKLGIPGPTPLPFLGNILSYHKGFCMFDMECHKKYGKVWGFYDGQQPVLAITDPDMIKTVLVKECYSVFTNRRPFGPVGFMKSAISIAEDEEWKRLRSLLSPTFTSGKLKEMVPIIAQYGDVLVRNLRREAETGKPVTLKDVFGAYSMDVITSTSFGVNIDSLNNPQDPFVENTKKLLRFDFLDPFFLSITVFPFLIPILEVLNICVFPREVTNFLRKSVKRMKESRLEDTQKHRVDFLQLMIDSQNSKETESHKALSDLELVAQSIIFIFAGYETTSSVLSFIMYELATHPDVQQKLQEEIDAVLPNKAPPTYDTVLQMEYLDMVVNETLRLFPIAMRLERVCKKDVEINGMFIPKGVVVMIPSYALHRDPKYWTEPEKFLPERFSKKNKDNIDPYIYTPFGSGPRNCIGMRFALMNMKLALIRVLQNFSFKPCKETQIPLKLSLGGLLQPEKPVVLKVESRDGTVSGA
Method: as §1, §2

[8] = target: heat-treated human liver microsomes (Homo sapiens, UniProt P08684); test: as above; type: in vitro ADME; details: human, microsomes
heat-treated human liver microsomes, sequence (P08684 2-503): as above
Method: as §1, §2

[9] = Beagle, 0.5 mg/kg, dog m (3), po, 0.5 mg base/kg
[10] = Beagle, 5 mg/kg, dog m (3), po, 5.0 mg base/kg
[11] = Beagle, dog m (4), po, 18.9 mg base/kg

## CN(C)C(=O)c1cc2cnc(Nc3ccc(N4CCNCC4)cn3)nc2n1C1CCCC1 [ribociclib, Ribociclib]
[1]; [9]
  Cmax: 10.4 ng/mL
  bioavailability: 64%
[1]; Beagle, 0.5 mg/kg, dog m (3), po, 0.5 mg base/kg, AUC interval 24 h
  AUC(0-t): 155 ng·h/mL
[1]; [10]
  Cmax: 206 ng/mL
  Tmax: 1 h
  half-life: 38.8 h
[1]; Beagle, 5 mg/kg, dog m (3), po, 5.0 mg base/kg, AUC interval 168 h
  AUC(0-t): 4520 ng·h/mL
[1]; [11]
  Cmax: 1220 ng/mL
  Tmax: 1 h
  bioavailability: 87%
  half-life: 12.6 h
[1]; Beagle, dog m (4), po, 18.9 mg base/kg, AUC interval 48 h
  AUC(0-t): 21100 ng·h/mL
[1]; Beagle, iv, 0.2 mg/kg, dog m (3), 0.2 mg base/kg, AUC interval 24 h
  AUC(0-t): 105 ng·h/mL
[1]; iv, dog m (3), 0.2 mg base/kg
  clearance: 31.7 mL/min/kg
[1]; iv, dog m (3), i.v., 0.2 mg base/kg, read-out: Vss
  Vd: 27.9 L/kg
[1]; iv, dog m (3), i.v., 0.2 mg base/kg
  half-life: 18.1 h
[2]; CYP1A2, share of total CYP-mediated metabolism in HLM
  fm,CYP: 1.1%
[2]; CYP1A2 incubation
  fumic: 0.86
[3]
  fm (Rel. Clint), CYP3A4 share of oxidative metabolism in HLM: 74%
  fm (Rel. Clint), FMO3 / hepatic FMO share of oxidative metabolism in HLM: 26%
[4]; CYP3A5, share of total CYP-mediated metabolism in HLM
  fm,CYP: 1.2%
[4]; CYP3A5 incubation
  fumic: 0.87
[5]; CYP3A4, share of total CYP-mediated metabolism in HLM
  fm,CYP: 97%
[5]; CYP3A4 incubation
  fumic: 0.83
[5]; recombinant CYP3A4, substrate inhibition model
  Vmax: 12.3 ± 5.2 pmol/min/pmol
[6]
  fraction unbound at 1 h: 0.2 ± 0.01
[7]
  FMO metabolism as share of intrinsic clearance in HLM: about 15%
[8]
  Ki at 0.25 h: 328 µM
